Laboratory results as given in patent EP0719251B1, “BICYCLO (2.2.2) OCTANE DERIVATIVES CHOLECYSTOKININ AND/OR GASTRIN ANTAGONISTS” (JAMES BLACK FOUNDATION LIMITED, priority 1993, dated 1995).

How the values were obtained:
[1] = target: T1, CCKB receptor (Mus musculus, UniProt P56481); assay: radioligand binding assay at the CCKB receptor in mouse cortical membranes; conditions: [125I]-CCK8S 200pM, 150 min at 21 ± 3°C; for Ki: read-out: CCKB pKi (converted)
T1 construct: The whole brains from male mice (CD1 22-25g; Charles River) were removed; from tissue; host or cells: cerebral cortex membranes of male CD1 mice
T1 sequence (P56481 1-453): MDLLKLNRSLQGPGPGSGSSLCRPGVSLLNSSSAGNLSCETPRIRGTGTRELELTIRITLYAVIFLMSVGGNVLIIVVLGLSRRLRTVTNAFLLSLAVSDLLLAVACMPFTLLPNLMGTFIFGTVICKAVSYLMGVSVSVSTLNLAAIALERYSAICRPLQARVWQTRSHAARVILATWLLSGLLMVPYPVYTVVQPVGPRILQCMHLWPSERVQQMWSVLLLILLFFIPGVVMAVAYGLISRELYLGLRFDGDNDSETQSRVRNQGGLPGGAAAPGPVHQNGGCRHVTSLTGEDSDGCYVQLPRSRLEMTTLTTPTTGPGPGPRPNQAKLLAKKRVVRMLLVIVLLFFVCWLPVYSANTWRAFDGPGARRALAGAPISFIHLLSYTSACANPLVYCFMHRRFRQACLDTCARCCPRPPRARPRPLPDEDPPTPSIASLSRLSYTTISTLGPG
Experimental: The compounds of the examples were tested for binding at the CCKB receptor in mouse cortical membranes by means of a radioligand binding assay. The procedure was as follows:
The whole brains from male mice (CD1 22-25g; Charles River) were removed and placed in ice-cold buffer (pH7.2 @ 21 ± 3°C) of the following composition (mM); 10 HEPES, 130 NaCl, 4.7 KCl, 5 MgCl2, 1 EDTA and containing 0.25g.l^-1 bacitracin. The cortex was dissected, weighed and homogenised in 40ml ice-cold buffer using a Teflon-in-glass homogeniser. The homogenate was centrifuged at 39,800g for 20 min at 4°C, the supernatant discarded and the pellet resuspended by homogenisation in fresh buffer. The homogenate was recentrifuged (39,800g; 20 min @ 4°C) and the final pellet was resuspended in HEPES buffer to give a tissue concentration of 2mg.ml^-1(original wet weight).
The assay was terminated by rapid filtration through pre-soaked Whatman GF/B filters using a Brandell Cell harvester. The filters were washed (3 x 3ml) with ice-cold 50mM Tris-HCl (pH7.4 @ 4°C) and bound radioactivity determined by counting (1 min.) in a gamma-counter.

[2] = target: T2, gastrin (Rattus norvegicus, UniProt P30553); assay: gastrin antagonist activity in an immature rat stomach assay; conditions: isolated immature rat stomach, cumulative pentagastrin dose-response curves, acid secretion; for Kb: read-out: Gastrin pKB (converted)
T2 construct: The stomach was excised and flushed with ca. 1 ml of unbuffered physiological saline solution; from tissue; host or cells: isolated whole stomach of immature rats (33-50 g, ca. 21 days old)
T2 sequence (P30553 1-452): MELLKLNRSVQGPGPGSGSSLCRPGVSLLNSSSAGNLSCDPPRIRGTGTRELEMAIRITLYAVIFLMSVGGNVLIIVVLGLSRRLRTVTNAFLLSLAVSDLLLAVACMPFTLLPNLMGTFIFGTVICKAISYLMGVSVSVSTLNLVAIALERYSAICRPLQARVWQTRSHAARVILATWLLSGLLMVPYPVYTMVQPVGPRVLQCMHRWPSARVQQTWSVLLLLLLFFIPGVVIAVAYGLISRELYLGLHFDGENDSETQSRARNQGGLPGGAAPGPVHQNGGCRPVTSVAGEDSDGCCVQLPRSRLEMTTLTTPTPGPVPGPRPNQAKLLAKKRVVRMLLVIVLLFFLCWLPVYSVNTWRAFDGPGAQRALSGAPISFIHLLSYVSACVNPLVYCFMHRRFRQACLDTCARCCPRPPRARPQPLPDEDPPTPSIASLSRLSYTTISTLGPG
Experimental: The compounds of the examples were also tested for gastrin antagonist activity in an immature rat stomach assay. The procedure was as follows: The oesophagus of immature rats (33-50 g, ca. 21 days old) was ligated at the level of the cardiac sphincter and the duodenal sphincter was cannulated. The stomach was excised and flushed with ca. 1 ml of unbuffered physiological saline solution. The fundus was punctured and cannulated. A further 4-5 ml of unbuffered solution was flushed through the stomach to ensure the preparation was not leaking. […] The stomach was continuously perfused at a rate of 1 ml min^-1 with unbuffered solution gassed with 100% O2 with the perfusate passing over an internally referenced pH-electrode fixed 12 cm above the stomach. After 120 min of stabilisation the drugs were added directly to the serosal solution in the organ bath and after a further 60 min cumulative pentagastrin dose-response curves were started.

| Compound | CCKB pKi [1] | Ki [1] [nM] | Kb [2] [nM] | Gastrin pKB ([2]; 60 min) |
| --- | --- | --- | --- | --- |
| cis-7-(1S-(3-carboxyphenylaminocarbonyl)-2-phenylethylaminocarbonyl)-8-(1-naphthalenemethylaminocarbonyl)-2,3,5,6-dibenzobicyclo[2.2.2]octane [Example 59] | 7.2 | – | – | – |
| O=C(O)c1ccc(NC(=O)[C@H](Cc2ccccc2)NC(=O)C2C3c4ccccc4C(c4ccccc43)C2C(=O)NCC23CC4CC(CC(C4)C2)C3)cc1 (single isomer, unassigned) [Example 47] | – | 126 | – | – |
| O=C(O)c1cc(NC(=O)[C@H](Cc2ccccc2)NC(=O)C2C3c4ccccc4C(c4ccccc43)C2C(=O)NCC2CCCCCC2)cc(C(=O)O)c1 (single isomer, unassigned) [Example 28, cis-7-(1S-(3,5-dicarboxyphenylaminocarbonyl) -2-phenylethylaminocarbonyl)-8-(1-cycloheptane-methylaminocarbonyl) -2,3,5,6-dibenzobicyclo[2.2.2]octane] | – | 3.98 | 3.98 | – |
| O=C(O)c1ccc(NC(=O)[C@H](Cc2ccccc2)NC(=O)C2C3c4ccccc4C(c4ccccc43)C2C(=O)NCC23CC4CC(CC(C4)C2)C3)cc1 (single isomer, unassigned) [Example 46, cis-7-(1S-(4-carboxy-phenylaminocarbonyl) -2-phenylethylaminocarbonyl)-8-(1-adamantane-methylaminocarbonyl) -2,3,5,6-dibenzobicyclo[2.2.2]octane] | – | 158 | 2000 | – |
| O=C(O)c1cc(NC(=O)[C@H](Cc2ccccc2)NC(=O)C2C3c4ccccc4C(c4ccccc43)C2C(=O)NCC2CCCCCC2)cc(C(=O)O)c1 (single isomer, unassigned) [Example 29, cis-7-(1S-(3,5-dicarboxyphenylaminocarbonyl) -2-phenylethylaminocarbonyl) -8-(cycloheptanemethyl-aminocarbonyl)-2,3,5,6-dibenzobicyclo[2.2.2]octane] | – | 39.8 | 100 | – |
| COC(=O)c1cc(NC(=O)[C@H](Cc2ccccc2)NC(=O)C2C3c4ccccc4C(c4ccccc43)C2C(=O)NCC23CC4CC(CC(C4)C2)C3)cc(C(=O)OC)c1 (single isomer, unassigned) [Example 48] | – | 10000 | – | – |
| cis-7-(1S-(3-carboxyphenylaminocarbonyl)-2- (2-thiophenyl)ethylaminocarbonyl)-8-(1-naphthalenemethylaminocarbonyl) -2,3,5,6-dibenzobicyclo[2.2.2]octane [Example 57] | 7.2 | – | – | – |
| O=C(NCC12CC3CC(CC(C3)C1)C2)C1C2c3ccccc3C(c3ccccc32)C1C(=O)N[C@@H](Cc1ccccc1)C(=O)Nc1ccccc1 (single isomer, unassigned) [Example 23, cis-7-(1S-(phenylaminocarbonyl)-2-phenylethylaminocarbonyl)-8-(1-adamantanemethylaminocarbonyl)-2,3,5,6-dibenzobicyclo[2.2.2]octane] | – | – | 251 | – |
| O=C(O)c1cc(NC(=O)[C@@H](Cc2ccc(O)cc2)NC(=O)C2C3c4ccccc4C(c4ccccc43)C2C(=O)NCC23CC4CC(CC(C4)C2)C3)cc(C(=O)O)c1 (single isomer, unassigned) [Example 26, cis-7-(1R-(3,5-dicarboxyphenylaminocarbonyl)-2-(4-hydroxyphenyl)-ethylaminocarbonyl)-8-(1-adamantanemethylaminocarbonyl) -2,3,5,6-dibenzobicyclo [2.2.2]octane] | – | – | 158 | – |
| O=C(NCC12CC3CC(CC(C3)C1)C2)C1C2c3ccccc3C(c3ccccc32)C1C(=O)N[C@@H](Cc1ccccc1)C(=O)Nc1cc(-c2nnn[nH]2)cc(-c2nnn[nH]2)c1 (stereo partly drawn) [Example 44, cis-7-(1S-(3,5-ditetrazolylphenylaminocarbonyl) -2-phenylethylaminocarbonyl) -8-(1-adamantanemethylaminocarbonyl)-2,3,5,6-dibenzobicyclo[2.2.2] octane] | 6.5 | – | – | 6.9 |
| O=C(O)c1cccc(NC(=O)[C@H](Cc2ccccc2)NC(=O)C2C3c4ccccc4C(c4ccccc43)C2C(=O)NCc2cccc3ccccc23)c1 (single isomer, unassigned) [Example 60, cis-7-(1S-(3-carboxyphenylaminocarbonyl)-2-phenylethylaminocarbonyl)-8-(1-naphthalenemethylaminocarbonyl)-2,3,5,6-dibenzobicyclo [2.2.2]octane] | – | 398 | – | – |
| O=C(O)c1cc(NC(=O)[C@H](Cc2ccc(O)cc2)NC(=O)C2C3c4ccccc4C(c4ccccc43)C2C(=O)NCC23CC4CC(CC(C4)C2)C3)cc(C(=O)O)c1 (single isomer, unassigned) [Example 24, cis-7-(1S-(3,5-dicarboxyphenylaminocarbonyl) -2-(4-hydroxyphenyl) -ethylaminocarbonyl)-8-(1-adamantanemethylaminocarbonyl) -2,3,5,6-dibenzobicyclo[2.2.2]octane] | – | 1.58 | 1.26 | – |
| O=C(O)c1cc(NC(=O)[C@H](Cc2ccc(O)cc2)NC(=O)C2C3c4ccccc4C(c4ccccc43)C2C(=O)NCC23CC4CC(CC(C4)C2)C3)cc(C(=O)O)c1 (single isomer, unassigned) [Example 25, cis-7-(1S-(3,5-dicarboxyphenylaminocarbonyl)-2-(4-hydroxyphenyl)ethylaminocarbonyl)-8-(1-adaxantanemethylaminocarbonyl)-2,3,5,6-dibenzobicyclo[2.2.2]octane] | – | – | 63.1 | – |
| O=C(O)c1cccc(NC(=O)[C@H](Cc2cccs2)NC(=O)C2C3c4ccccc4C(c4ccccc43)C2C(=O)NCc2cccc3ccccc23)c1 (single isomer, unassigned) [Example 58, cis-7-(1S-(3-carboxyphenylaminocarbonyl)-2-(2-thiophenyl)ethylaminocarbonyl)-8-(1-naphthalenemethylaminocarbonyl)-2,3,5,6-dibenzobicyclo[2.2.2]octane] | – | 501 | – | – |
| O=C(O)c1cc(NC(=O)[C@@H](Cc2ccc(O)cc2)NC(=O)C2C3c4ccccc4C(c4ccccc43)C2C(=O)NCC23CC4CC(CC(C4)C2)C3)cc(C(=O)O)c1 (single isomer, unassigned) [Example 27, cis-7-(1R-(3,5-dicarboxyphenylaminocarbonyl)-2-(4-hydroxyphenyl)ethylaminocarbonyl)-8-(1-adamantanemethylaminocarbonyl)-2,3,5,6-dibenzobicyclo [2.2.2]octane] | – | 15.8 | 7.94 | – |
